Results taken from patent publication US20210235704A9, “Combinations of Lipo-Chitooligosaccharides and Methods for Use in Enhancing Plant Growth” (NOVOZYMES BIOAG A/S, priority 2011, published 2021).

Test system: Florida petite cherry tomato plants
Assay: LCO foliar application on cherry tomato (greenhouse)
Assay type: in vivo
Details: at the end of harvest, compared to control treatment; FIG. 11
Procedure: Based on the findings from the soybean LCO and the alfalfa LCO combination in Siratro (example 1), further investigation was conducted on tomato. Florida petite cherry tomato plants were grown from seeds in greenhouse plastic containers and sprayed with soy LCO or its combination with alfalfa LCO during the initiation of flower buds at 5 ml/plant application rate. A second spry was also applied one week after the first application. At different maturity, leaf greenness, flower number, fruit number and final fruit fresh weight were measured.

LCO-V(C18:1, MeFuc), MOR116 [soy LCO]
average fruit number per plant: significantly higher
